# Molecular target: T1, CCR7 (Homo sapiens, UniProt P32248)
# T1 sequence (P32248 25-378): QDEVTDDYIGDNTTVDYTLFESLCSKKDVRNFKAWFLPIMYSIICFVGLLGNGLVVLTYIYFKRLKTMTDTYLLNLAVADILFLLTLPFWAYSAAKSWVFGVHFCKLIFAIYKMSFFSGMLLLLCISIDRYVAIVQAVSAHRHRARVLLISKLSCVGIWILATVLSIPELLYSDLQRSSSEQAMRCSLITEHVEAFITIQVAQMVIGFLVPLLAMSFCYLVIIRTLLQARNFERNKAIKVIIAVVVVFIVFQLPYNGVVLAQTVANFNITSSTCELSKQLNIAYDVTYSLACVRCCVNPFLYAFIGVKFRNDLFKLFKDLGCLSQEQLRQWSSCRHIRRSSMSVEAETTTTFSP
# Experiment: Ligand binding to CCR7
compound,measurement,value
"CCCCOCCOc1ccc(-c2ccc3c(c2)/C=C(/C(=O)Nc2ccc([S@@+]([O-])Cc4cncn4CCC)cc2)CCCN3CC(C)C)cc1 [CVC, (S)-8-[4-(2-Butoxyethoxy)phenyl]-1-isobutyl-N-(4-{[(1-propyl-1H-imidazol-5-yl)methyl]sulfinyl}phenyl)-1,2,3,4-tetrahydro-1-benzazocine-5-carboxamide]",inhibition of ligand binding (in words),did not inhibit

# Reference: patent US20170105969A1, “CENICRIVIROC FOR THE TREATMENT OF HIV-2 INFECTION” (Tobira Therapeutics, Inc., priority 2014, published 2017)
